Source: ChEMBL document CHEMBL4017496 (J Med Chem, 2017)
The source made the active and inactive calls. No cut-off for these calls is given here.

How the values were obtained:
[1] = target: T1, Oxysterols receptor LXR-alpha (Homo sapiens) (UniProt Q13133); assay: Binding affinity to human LXRalpha at 4 uM by TR-FRET assay
T1 sequence (whole entry): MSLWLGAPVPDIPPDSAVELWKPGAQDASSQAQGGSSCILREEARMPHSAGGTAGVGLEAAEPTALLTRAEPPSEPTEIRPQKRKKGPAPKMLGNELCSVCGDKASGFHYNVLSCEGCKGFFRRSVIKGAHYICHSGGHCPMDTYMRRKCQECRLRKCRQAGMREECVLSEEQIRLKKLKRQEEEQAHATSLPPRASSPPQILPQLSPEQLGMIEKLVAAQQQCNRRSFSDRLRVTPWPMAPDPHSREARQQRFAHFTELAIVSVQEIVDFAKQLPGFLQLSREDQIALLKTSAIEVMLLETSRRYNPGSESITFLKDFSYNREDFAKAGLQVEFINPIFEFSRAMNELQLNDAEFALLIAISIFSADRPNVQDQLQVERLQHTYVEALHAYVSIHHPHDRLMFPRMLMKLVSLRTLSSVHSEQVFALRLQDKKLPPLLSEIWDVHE

[2] = target: T2, Peroxisome proliferator-activated receptor delta (Homo sapiens) (UniProt Q03181); assay: Displacement of Fluormone-Pan-PPAR Green from human GST-tagged PPARdelta LBD at 4 uM by TR-FRET assay relative to control
T2 sequence (whole entry): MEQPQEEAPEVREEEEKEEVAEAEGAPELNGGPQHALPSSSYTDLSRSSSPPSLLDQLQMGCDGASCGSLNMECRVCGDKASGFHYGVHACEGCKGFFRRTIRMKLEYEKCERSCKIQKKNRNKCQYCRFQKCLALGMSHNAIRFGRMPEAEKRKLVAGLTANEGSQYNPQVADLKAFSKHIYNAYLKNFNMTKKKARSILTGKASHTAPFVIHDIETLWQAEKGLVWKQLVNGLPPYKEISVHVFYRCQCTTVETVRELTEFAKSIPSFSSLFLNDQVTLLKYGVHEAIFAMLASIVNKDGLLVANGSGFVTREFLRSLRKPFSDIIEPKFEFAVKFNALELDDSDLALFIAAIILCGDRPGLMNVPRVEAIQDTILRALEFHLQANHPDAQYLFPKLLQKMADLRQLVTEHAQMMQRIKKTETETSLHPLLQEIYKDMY

Mus musculus [3] = assay: Antidiabetic activity in STZ-induced diabetic C57BL/6J mouse assessed as insulin sensitivity by measuring reduction of serum lactate level at 20 mg/kg,po for 5 days; type: functional, organism-based
Mus musculus [4] = assay: Antidiabetic activity in STZ-induced diabetic C57BL/6J mouse assessed as insulin sensitivity by measuring reduction of serum glucose levels at 20 mg/kg,po for 5 days measured at 1 and 4 hrs post last dose; type: functional, organism-based
[5] = target: T3, Peroxisome proliferator-activated receptor gamma (Homo sapiens) (UniProt P37231); assay: Displacement of Fluormone-Pan-PPAR Green from human GST-tagged PPARgamma LBD at 20 uM by TR-FRET assay relative to control
T3 sequence (whole entry): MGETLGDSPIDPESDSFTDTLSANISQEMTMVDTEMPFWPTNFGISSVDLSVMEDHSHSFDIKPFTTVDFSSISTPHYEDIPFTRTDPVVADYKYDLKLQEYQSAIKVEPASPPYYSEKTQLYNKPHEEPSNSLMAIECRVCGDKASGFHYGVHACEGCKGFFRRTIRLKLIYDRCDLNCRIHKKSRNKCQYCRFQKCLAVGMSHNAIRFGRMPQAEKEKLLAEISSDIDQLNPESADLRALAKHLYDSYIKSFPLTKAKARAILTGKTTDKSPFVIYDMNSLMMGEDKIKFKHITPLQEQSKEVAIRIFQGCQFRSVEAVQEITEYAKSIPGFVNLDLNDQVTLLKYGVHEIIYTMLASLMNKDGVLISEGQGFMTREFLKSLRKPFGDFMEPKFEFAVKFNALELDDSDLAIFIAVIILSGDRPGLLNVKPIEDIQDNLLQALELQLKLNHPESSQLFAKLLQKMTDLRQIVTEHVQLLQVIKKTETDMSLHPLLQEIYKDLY

[6] = target: Cyclin-dependent kinase 5/CDK5 activator 1 (Homo sapiens) (UniProt Q00535+Q15078); assay: Inhibition of human CDK5/p35 up to 20 uM using histone H1 as substrate after 40 mins in presence of [gamma32P]ATP by scintillation counting; type: protein-complex assay
Chain of Cyclin-dependent kinase 5/CDK5 activator 1 (Homo sapiens) (Q00535 whole entry, the tested form may be a part): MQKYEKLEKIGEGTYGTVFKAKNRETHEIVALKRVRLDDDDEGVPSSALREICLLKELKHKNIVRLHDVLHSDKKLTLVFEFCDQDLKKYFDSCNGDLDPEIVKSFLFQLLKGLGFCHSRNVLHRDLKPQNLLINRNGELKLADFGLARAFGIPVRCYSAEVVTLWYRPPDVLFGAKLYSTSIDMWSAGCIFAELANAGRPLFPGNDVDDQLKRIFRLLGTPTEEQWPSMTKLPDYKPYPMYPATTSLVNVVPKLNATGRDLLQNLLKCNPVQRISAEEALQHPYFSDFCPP
Chain of Cyclin-dependent kinase 5/CDK5 activator 1 (Homo sapiens) (Q15078 99-307 partner limits assumed): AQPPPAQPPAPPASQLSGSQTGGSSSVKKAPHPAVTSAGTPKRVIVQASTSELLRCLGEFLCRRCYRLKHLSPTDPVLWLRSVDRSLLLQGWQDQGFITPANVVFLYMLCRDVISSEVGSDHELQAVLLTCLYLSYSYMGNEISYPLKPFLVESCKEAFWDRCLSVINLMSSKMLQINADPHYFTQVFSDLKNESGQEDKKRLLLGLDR

[7] = target: T2, Peroxisome proliferator-activated receptor delta (Homo sapiens); assay: Transactivation of human GST-tagged PPARdelta LBD assessed as fluorescein-C33 coactivator recruitment at 10 uM by TR-FRET assay
[8] = Induction of adipogenesis in human bone marrow-derived mesenchymal stem cells assessed as adiponectin level at 20 uM measured on day 7 after 48 hrs by ELISA; type: functional, Mesenchymal stem cell
[9] = Induction of adipogenesis in human bone marrow-derived mesenchymal stem cells assessed as adiponectin level at 4 uM measured on day 7 after 48 hrs by ELISA; type: functional, Mesenchymal stem cell
[10] = target: T4, Peroxisome proliferator-activated receptor alpha (Homo sapiens) (UniProt Q07869); assay: Displacement of Fluormone-Pan-PPAR Green from human GST-tagged PPARalpha LBD at 4 uM by TR-FRET assay relative to control
T4 sequence (whole entry): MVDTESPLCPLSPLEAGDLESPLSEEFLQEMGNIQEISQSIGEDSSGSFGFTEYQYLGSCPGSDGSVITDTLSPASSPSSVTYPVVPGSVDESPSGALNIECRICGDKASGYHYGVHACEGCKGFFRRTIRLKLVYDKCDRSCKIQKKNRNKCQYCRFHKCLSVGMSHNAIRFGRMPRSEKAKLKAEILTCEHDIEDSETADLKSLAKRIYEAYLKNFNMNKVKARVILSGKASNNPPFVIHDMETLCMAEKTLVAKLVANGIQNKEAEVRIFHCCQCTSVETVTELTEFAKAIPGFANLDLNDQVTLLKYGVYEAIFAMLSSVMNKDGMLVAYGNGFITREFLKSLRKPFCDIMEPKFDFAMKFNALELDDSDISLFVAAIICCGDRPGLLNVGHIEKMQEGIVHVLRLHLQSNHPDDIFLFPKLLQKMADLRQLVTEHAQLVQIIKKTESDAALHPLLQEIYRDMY

[11] = target: Peroxisome proliferator-activated receptor delta (Homo sapiens) (UniProt Q03181); assay: Antagonist activity at human GST-tagged PPARdelta LBD assessed as reduction in GW501516-induced fluorescein-C33 coactivator recruitment at 1 uM by TR-FRET assay relative to control

Q: With CNC(=O)[C@H]1O[C@@H](n2cnc3c(NCc4cccc(I)c4)ncnc32)[C@H](O)[C@@H]1O [IB-MECA] as the compound, how does the Activity [1] read?
A: Its Activity is “inactive”.

Q: What about the inhibition [2] of the same compound?
A: Its inhibition is 26%.

Q: And the Activity (Mus musculus [3])?
A: Its Activity is “Active”.

Q: And the Activity (Mus musculus [4])?
A: The Activity was “Active”.

Q: What about the inhibition [5] of the same compound?
A: Its inhibition is 22.2%.

Q: And the inhibition [6]?
A: The inhibition was “inactive”.

Q: And the Activity [7]?
A: The Activity was “inactive”.

Q: And the Activity [8]?
A: Its Activity is 216 pg/mL.

Q: What about the Activity [9] of the same compound?
A: Its Activity is 117 pg/mL.

Q: What about the inhibition [10] of the same compound?
A: The inhibition was “inactive”.

Q: What about the inhibition [11] of the same compound?
A: The inhibition was 14%.
